Reference: patent US20230085307A1, “PYRIDAZINONE COMPOUND AND HERBICIDE” (NISSAN CHEMICAL CORPORATION, priority 2019, published 2023)

Tests used:
rice flat sedge = test: Test Example 3: herbicidal effect by foliage application, Wagner pot (Table 18, symbol E); format: in vivo, rice flat sedge (Cyperus iria)
Description: (§1) [Test Example 3] Herbicidal Effect Test by Foliage Application After alluvial soil was placed into 1/10000 are of Wagner pot, water was poured and mixed to form a submerged condition having a water depth of 0.1 cm to 0.5 cm. Seeds of barnyard grass, Chinese sprangletop, rice flat sedge, and rice were sowed and the pot was placed in a greenhouse at 25° C. to 30° C. for growth of the plants. After 14-day growth of the plants, the emulsion agent of the compound of the present invention prepared according to Formulation Example 2 was diluted with water so as to achieve a predetermined herbicide amount, and the diluted emulsion agent was uniformly applied to a foliage part with a small-sized spray. Three weeks after the herbicide application, the effect of the herbicide on each plant was evaluated according to the criteria of Test Example 1.

barnyard grass [1] = test: Test Example 3: herbicidal effect by foliage application, Wagner pot (Table 18, symbol H); format: in vivo, barnyard grass (Echinochloa crus-galli)
Description: as §1

Chinese sprangletop = test: Test Example 3: herbicidal effect by foliage application, Wagner pot (Table 18, symbol D); format: in vivo, chinese sprangletop (Leptochloa chinensis)
Description: as §1

barnyard grass [2] = test: Test Example 5: herbicidal effect by foliage application, plastic box (Table 20, symbol H); format: in vivo, barnyard grass (Echinochloa crus-galli); details: foliage application, 320 g/ha, three weeks after application
Description: (§2) [Test Example 5] Herbicidal Effect Test by Foliage Application
(§3) Sterilized diluvial soil was placed in a plastic box having a length of 21 cm, a width of 13 cm, and a depth of 7 cm. The seeds of each of southern crabgrass, green foxtail, barnyard grass, wild oat, blackgrass, Italian ryegrass, windgrass, velvetleaf, redroot pigweed, lambsquarters, chickweed, false cleavers, persian speedwell, corn, soybean, rice, wheat, beet, and rapeseed were sowed in a spot-like manner and covered with the soil having a thickness of about 1.5 cm. Thereafter, the plants were grown in a greenhouse at 25° C. to 30° C. After 14-day growth of the plants, the emulsion agent of the compound of the present invention prepared according to Formulation Example 2 was diluted with water so as to achieve a predetermined herbicide amount, and the diluted emulsion agent was uniformly applied to a foliage part with a small-sized spray. Three weeks after the herbicide application, the effect of the herbicide on each plant was evaluated according to the criteria of Test Example 1.

lambsquarters = test: Test Example 5: herbicidal effect by foliage application, plastic box (Table 20, symbol O); format: in vivo, lambsquarters (Chenopodium album); details: foliage application, 320 g/ha, three weeks after application
Description: as §2, §3

green foxtail = test: Test Example 5: herbicidal effect by foliage application, plastic box (Table 20, symbol G); format: in vivo, green foxtail (Setaria viridis); details: foliage application, 320 g/ha, three weeks after application
Description: as §2, §3

wild oat = test: Test Example 5: herbicidal effect by foliage application, plastic box (Table 20, symbol I); format: in vivo, wild oat (Avena fatua); details: foliage application, 320 g/ha, three weeks after application
Description: as §2, §3

velvetleaf = test: Test Example 5: herbicidal effect by foliage application, plastic box (Table 20, symbol M); format: in vivo, velvetleaf (Abutilon theophrasti); details: foliage application, 320 g/ha, three weeks after application
Description: as §2, §3

southern crabgrass = test: Test Example 5: herbicidal effect by foliage application, plastic box (Table 20, symbol F); format: in vivo, southern crabgrass (Digitaria ciliaris); details: foliage application, 320 g/ha, three weeks after application
Description: as §2, §3

Italian ryegrass = test: Test Example 5: herbicidal effect by foliage application, plastic box (Table 20, symbol K); format: in vivo, Italian ryegrass (Lolium multiflorum); details: foliage application, 320 g/ha, three weeks after application
Description: as §2, §3

blackgrass = test: Test Example 5: herbicidal effect by foliage application, plastic box (Table 20, symbol J); format: in vivo, blackgrass (Alopecurus myosuroides); details: foliage application, 320 g/ha, three weeks after application
Description: as §2, §3

persian speedwell = test: Test Example 5: herbicidal effect by foliage application, plastic box (Table 20, symbol R); format: in vivo, Persian speedwell (Veronica persica); details: foliage application, 320 g/ha, three weeks after application
Description: as §2, §3

windgrass = test: Test Example 5: herbicidal effect by foliage application, plastic box (Table 20, symbol L); format: in vivo, windgrass (Apera spica-venti); details: foliage application, 320 g/ha, three weeks after application
Description: as §2, §3

[3] = amount of applied herbicide 320 g/ha
[4] = amount of applied herbicide 101 g/ha
[5] = amount of applied herbicide 125 g/ha

CCCC(=O)Oc1c(C)nn(C)c(=O)c1-c1c(-c2ccc(OC)nc2OC)sc2ccccc12 [1-080]
herbicidal effect on E (rice flat sedge), rating 0-5 (rice flat sedge; 320 g/ha): 4 (Herbicidal rate of 70% or more and less than 90%)
herbicidal effect on H (barnyard grass), rating 0-5 (barnyard grass [1]; 320 g/ha): 0 (Herbicidal rate of 5% or less (almost no effect))
herbicidal effect on D (Chinese sprangletop), rating 0-5 (Chinese sprangletop; 320 g/ha): 0 (Herbicidal rate of 5% or less (almost no effect))

COc1nn(C)c(=O)c(-c2c(-c3ccc(Oc4ccccc4)cc3)sc3ccccc23)c1O [1-164]
herbicidal effect on E (rice flat sedge), rating 0-5 (rice flat sedge; 80 g/ha): 4 (Herbicidal rate of 70% or more and less than 90%)
herbicidal effect on H (barnyard grass), rating 0-5 (barnyard grass [1]; 80 g/ha): 4 (Herbicidal rate of 70% or more and less than 90%)
herbicidal effect on D (Chinese sprangletop), rating 0-5 (Chinese sprangletop; 80 g/ha): 4 (Herbicidal rate of 70% or more and less than 90%)

CCCC(=O)Oc1c(OC)nn(C)c(=O)c1-c1c(-c2ccoc2)sc2ccccc12 [1-191]
herbicidal effect on E (rice flat sedge), rating 0-5 (rice flat sedge; 80 g/ha): 4 (Herbicidal rate of 70% or more and less than 90%)
herbicidal effect on H (barnyard grass), rating 0-5 (barnyard grass [1]; 80 g/ha): 2 (Herbicidal rate of 20% or more and less than 40%)
herbicidal effect on D (Chinese sprangletop), rating 0-5 (Chinese sprangletop; 80 g/ha): 5 (Herbicidal rate of 90% or more (almost completely withered))

Cc1ccc2sc(-c3ccc4ccccc4c3)c(-c3c(O)c(C)nn(C)c3=O)c2c1 [2-154]
herbicidal effect on E: rice flat sedge (rice flat sedge; [3]): 3 (Herbicidal rate of 40% or more and less than 70%)
herbicidal effect on H: barnyard grass (barnyard grass [1]; [3]): 3 (Herbicidal rate of 40% or more and less than 70%)
herbicidal effect on D: Chinese sprangletop (Chinese sprangletop; [3]): 0 (Herbicidal rate of 5% or less (almost no effect))

CCCC(=O)Oc1c(C)nn(C)c(=O)c1-c1c(-c2cc(C(F)(F)F)cc(C(F)(F)F)c2)sc2ccc(F)cc12 [2-359]
herbicidal effect on E: rice flat sedge (rice flat sedge; [3]): 3 (Herbicidal rate of 40% or more and less than 70%)
herbicidal effect on H: barnyard grass (barnyard grass [1]; [3]): 3 (Herbicidal rate of 40% or more and less than 70%)
herbicidal effect on D: Chinese sprangletop (Chinese sprangletop; [3]): 5 (Herbicidal rate of 90% or more (almost completely withered))

COc1cc(F)ccc1-c1sc2ccc(S(C)(=O)=O)cc2c1-c1c(O)c(C)nn(C)c1=O [2-377]
herbicidal effect on E: rice flat sedge (rice flat sedge; [4]): 3 (Herbicidal rate of 40% or more and less than 70%)
herbicidal effect on H: barnyard grass (barnyard grass [1]; [4]): 4 (Herbicidal rate of 70% or more and less than 90%)
herbicidal effect on D: Chinese sprangletop (Chinese sprangletop; [4]): 3 (Herbicidal rate of 40% or more and less than 70%)

CCn1nc(C)c(O)c(-c2c(-c3ccc(Cl)cc3)sc3ccc(F)cc23)c1=O [2-400]
herbicidal effect on E: rice flat sedge (rice flat sedge; [3]): 5 (Herbicidal rate of 90% or more (almost completely withered))
herbicidal effect on D: Chinese sprangletop (Chinese sprangletop; [3]): 5 (Herbicidal rate of 90% or more (almost completely withered))

Cc1n[nH]c(=O)c(-c2c(-c3ccc(F)cc3)sc3ccc(F)cc23)c1O [2-428]
herbicidal effect on E: rice flat sedge (rice flat sedge; [5]): 0 (Herbicidal rate of 5% or less (almost no effect))
herbicidal effect on H: barnyard grass (barnyard grass [1]; [5]): 4 (Herbicidal rate of 70% or more and less than 90%)
herbicidal effect on D: Chinese sprangletop (Chinese sprangletop; [5]): 0 (Herbicidal rate of 5% or less (almost no effect))

Cc1nn(Cc2ccccc2)c(=O)c(-c2c(-c3ccc(Cl)cc3)sc3ccc(F)cc23)c1O [2-434]
herbicidal effect on E: rice flat sedge (rice flat sedge; [3]): 2 (Herbicidal rate of 20% or more and less than 40%)
herbicidal effect on H: barnyard grass (barnyard grass [1]; [3]): 2 (Herbicidal rate of 20% or more and less than 40%)

Cc1nn(C)c(=O)c(-c2c(-c3ccc(OC(F)F)cc3)sc3c(C)cccc23)c1O [4-128]
herbicidal effect on rice flat sedge (E) (rice flat sedge; 320 g/ha): 5 (Herbicidal rate of 90% or more (almost completely withered))
herbicidal effect on barnyard grass (H) (barnyard grass [1]; 320 g/ha): 3 (Herbicidal rate of 40% or more and less than 70%)
herbicidal effect on Chinese sprangletop (D) (Chinese sprangletop; 320 g/ha): 0 (Herbicidal rate of 5% or less (almost no effect))

Cc1nn(C)c(=O)c(-c2c(-c3ccc(C(=O)O)cc3)sc3cc(F)c(F)cc23)c1O [5-027]
herbicidal effect on rice flat sedge (E) (rice flat sedge; 320 g/ha): 0 (Herbicidal rate of 5% or less (almost no effect))
herbicidal effect on barnyard grass (H) (barnyard grass [1]; 320 g/ha): 3 (Herbicidal rate of 40% or more and less than 70%)
herbicidal effect on Chinese sprangletop (D) (Chinese sprangletop; 320 g/ha): 0 (Herbicidal rate of 5% or less (almost no effect))

CCOc1cc(F)ccc1-c1cc2c(-c3c(O)c(C)nn(C)c3=O)c(-c3ccc(F)cc3OCC)sc2cc1OC [5-081]
herbicidal effect on rice flat sedge (E) (rice flat sedge; 320 g/ha): 0 (Herbicidal rate of 5% or less (almost no effect))
herbicidal effect on barnyard grass (H) (barnyard grass [1]; 320 g/ha): 2 (Herbicidal rate of 20% or more and less than 40%)
herbicidal effect on Chinese sprangletop (D) (Chinese sprangletop; 320 g/ha): 2 (Herbicidal rate of 20% or more and less than 40%)

Cc1cc2sc(-c3ccc(C(F)(F)F)cc3)c(-c3c(O)c(C)nn(C)c3=O)c2cc1C [5-096]
herbicidal effect on rice flat sedge (E) (rice flat sedge; 320 g/ha): 2 (Herbicidal rate of 20% or more and less than 40%)
herbicidal effect on barnyard grass (H) (barnyard grass [1]; 320 g/ha): 3 (Herbicidal rate of 40% or more and less than 70%)
herbicidal effect on Chinese sprangletop (D) (Chinese sprangletop; 320 g/ha): 2 (Herbicidal rate of 20% or more and less than 40%)

Cc1cc2sc(-c3ccc(C#N)cc3)c(-c3c(O)c(C)nn(C)c3=O)c2cc1C [5-100]
herbicidal effect on barnyard grass (H) (barnyard grass [2]): 0 (Herbicidal rate of 5% or less (almost no effect))
herbicidal effect on lambsquarters (O) (lambsquarters): 0 (Herbicidal rate of 5% or less (almost no effect))
herbicidal effect on green foxtail (G) (green foxtail): 0 (Herbicidal rate of 5% or less (almost no effect))
herbicidal effect on wild oat (I) (wild oat): 0 (Herbicidal rate of 5% or less (almost no effect))
herbicidal effect on velvetleaf (M) (velvetleaf): 0 (Herbicidal rate of 5% or less (almost no effect))
herbicidal effect on southern crabgrass (F) (southern crabgrass): 0 (Herbicidal rate of 5% or less (almost no effect))
herbicidal effect on Italian ryegrass (K) (Italian ryegrass): 0 (Herbicidal rate of 5% or less (almost no effect))
herbicidal effect on blackgrass (J) (blackgrass): 0 (Herbicidal rate of 5% or less (almost no effect))
herbicidal effect on persian speedwell (R) (persian speedwell): 2 (Herbicidal rate of 20% or more and less than 40%)
herbicidal effect on windgrass (L) (windgrass): 0 (Herbicidal rate of 5% or less (almost no effect))

Cc1ccc(-c2oc3ccc(F)cc3c2-c2c(O)c(C)nn(C)c2=O)cc1 [9-017]
Herbicidal effect on E (rice flat sedge), foliage application (rice flat sedge; [3]): 5 (Herbicidal rate of 90% or more (almost completely withered))
Herbicidal effect on H (barnyard grass), foliage application (barnyard grass [1]; [3]): 5 (Herbicidal rate of 90% or more (almost completely withered))
Herbicidal effect on D (Chinese sprangletop), foliage application (Chinese sprangletop; [3]): 3 (Herbicidal rate of 40% or more and less than 70%)

Cc1nn(C)c(=O)c(-c2c(-c3ccc(C(F)(F)F)cc3)oc3ccc(F)cc23)c1O [9-029]
Herbicidal effect on E (rice flat sedge), foliage application (rice flat sedge; [3]): 5 (Herbicidal rate of 90% or more (almost completely withered))
Herbicidal effect on H (barnyard grass), foliage application (barnyard grass [1]; [3]): 4 (Herbicidal rate of 70% or more and less than 90%)
Herbicidal effect on D (Chinese sprangletop), foliage application (Chinese sprangletop; [3]): 3 (Herbicidal rate of 40% or more and less than 70%)
